Measurements reported in patent publication EP2197879B1, “C7-SUBSTITUTED CAMPTOTHECIN ANALOGS” (priority 2007, dated 2009).
Like-named read-outs stand apart in the source and are kept apart here.

Columns and labels:
[1] = tested on: A2780/WT (wild-type) cells; assay: Sulforhodamine B (SRB) cytotoxicity assay in A2780/WT cells; assay type: cell-based
Experimental: (§1) Each of the testing conditions used in this study in both A2780/WT (wild-type) and A2780/DX5 cells were repeated in five to fifteen experiments that were performed on separate days. Each experiment consisted of one microtiter plate with at least eight individual assays of a given drug treatment condition on the plate. The sulforhodamine B (SRB) assay was used to assess cytotoxicity and absorbance at 570 nm (A570) in order to calculate the percentage of cell control (or percent cell survival) for the various treatment conditions in the plate wells.
(§2) Roswell Park Memorial Institute (RPMI 1640) medium, fetal bovine serum (FBS), and L-glutamine were purchased from Gibco BRL. Drugs were dissolved in sterile dimethylsulfoxide (DMSO), from American Type Culture Collection (ATCC) for stock solutions (2.5 to 5.0 mM). Subsequent dilutions were made using cell culture medium (prior to adding the drug to cells). SRB was purchased from Sigma and dissolved in 1.0 percent acetic acid. Trichloroacetic acid was purchased from VWR International.
(§3) Cells were manipulated in a Class IIA/B3 Biological Safety Cabinet (Forma Scientific) and maintained at 37°C in a humidified atmosphere containing 5% CO2 in a water-jacketed cell culture incubator (Forma Scientific). Cells were counted using a Coulter-Z1 counter (Beckman-Coulter). Following drug treatment, plates were washed using a Biomek 2000 station (Beckman) and, following exposure to SRB dye, plates were washed using an automated plate washer (Model EL404, Bio-Tek Instruments). Percentage of control was correlated to A570 values and determined using a Model EL800 plate reader (Bio-Tek Instruments).
(§4) Population doubling times for the two cell lines used in this study encompassed a total of five cell doublings corresponding to approximately 5 days for A2780/WT and A2780/DX5 cells. A2780/WT and A2780/DX5 cells were cultured in RPMI 1640 medium supplemented with 10% fetal bovine serum and 1 mM of L-glutamine. Both cell lines were maintained as monolayered cultures in T-25 or T-75 flasks and then seeded to microtiter plate wells for experiments described herein. Prior to SRB assays, cell viability was monitored by evaluation of microtiter plate wells. Dead cells detach and float while living cells remain attached to the bottom of the cell well.
(§5) The sulforhodamine B (SRB) cytotoxicity assay (see, Skehan P, et al., New colorimetric cytotoxicity assay for anticancer-drug screening. J. Natl. Cancer Inst. 82:1107-1112 (1990)) was used to determine the cytotoxic effects of BNP1350, SN-38, topotecan, 9-NH2-CPT, and 9-NO2-CPT on cell growth in vitro. Briefly, after the medium was aspirated from individual plate wells, trichloroacetic acid (100 µL of 10.0% solution) was added to each well, and the plates were incubated at 4°C for at least 1 hour. The plates were washed five-times with water using an automated microplate washer (Model EL 404, Bio-Tek Instruments), SRB solution (100 µL of 0.4 grams SRB dissolved in 100 mL 1.0 percent acetic acid) was added, and plates remained at room temperature for 15 minutes. The plates were then washed five-times using acetic acid (1.0%), air dried, and bound dye was solubilized in Tris base (150 µL, 10 mM). Plates were agitated (gently) for 5 minutes and the absorbance values of the SRB dye-protein adduct at a 570 nm wavelength (A570) were determined using an automated microtiter plate reader equipped with an A570 filter (Model EL800, BioTek Instruments). Table VII. Summary of Cytotoxicity Experiments in A2780/WT and DX5 Cells

[2] = tested on: A2780/DX5 cells; assay: Sulforhodamine B (SRB) cytotoxicity assay in A2780/DX5 cells; assay type: cell-based; conditions: for IC50 Ratio: A2780/DX5 versus A2780/WT
Experimental: as §1, §2, §3, §4, §5

[3] = tested on: human plasma proteins; conditions: 100 nM Compound Concentrations; 48 hours or longer at room temperature
[4] = Homo sapiens, A2780, read-out: A2780/ WT (IC50)
[5] = Homo sapiens, SRB assay, A2780/DX5 cells, read-out: A2780/ DX5 (IC50)
[6] = Homo sapiens, SRB assay, A2780/WT cells, read-out: A2780/ WT (IC50)
[7] = Homo sapiens, A2780, read-out: A2780/ DX5 (IC50)
[8] = SRB assay, A2780/WT cells, read-out: A2780/ WT (IC50)
[9] = SRB assay, A2780/DX5 cells, read-out: A2780/ DX5 (IC50)

CC[C@@]1(O)C(=O)OCc2c1cc1n(c2=O)Cc2c-1nc1ccccc1c2CC[Si](C)(C)CSC1=NCCS1 [Compound 34, (4S)-11-{2-[(4,5-dihydro-thiazol-2-ylsulfanylmethyl)-dimethylsilanyl]-ethyl}-4-ethyl-4-hydroxy-1,12-dihydro-4H-2-oxa-6,12a-diaza-dibenzo[b,h]fluorene-3,13-dione]
IC50 [1, 4]: 20.3 nM | IC50 Ratio [2]: 2.7 | IC50 [2, 5]: 55.5 nM

CC[C@@]1(O)C(=O)OCc2c1cc1n(c2=O)Cc2c-1nc1ccccc1c2CC[Si](C)(C)CSCCO [Compound 35, (4S)-4-ethyl-4-hydroxy-11-{2-[(2-hydroxy-ethylsulfanylmethyl)-dimethyl-silanyl]-ethyl}-1,12-dihydro-4H-2-oxa-6,12a-diaza-dibenzo[b,h]fluorene-3,13-dione]
IC50 [1, 6]: 8.2 nM | IC50 Ratio [2]: 2.6 | IC50 [2, 5]: 21.6 nM

CC[C@@]1(O)C(=O)OCc2c1cc1n(c2=O)Cc2c-1nc1ccccc1c2CC[Si](C)(C)CNS(=O)(=O)c1ccc(Cl)cc1 [Compound 37, (4S)-4-chloro-N-({[2-(4-ethyl-4-hydroxy-3,13-dioxo-3,4,12,13-tetrahydro-1H-2-oxa-6,12a-diaza-dibenzo[b,h]fluoren-11-yl)-ethyl]-dimethylsilanyl} -methyl)-benzenesulfonamide]
IC50 [1, 4]: 207 nM | IC50 Ratio [2]: 4.08 | IC50 [2, 7]: 845 nM

CC[C@@]1(O)C(=O)OCc2c1cc1n(c2=O)Cc2c-1nc1ccccc1c2CC[Si](C)(C)CNC(=O)Nc1ccccc1 [Compound 41, (4S)-1-({[2-(4-ethyl-4-hydroxy-3,13-dioxo-3,4,12,13-tetrahydro-1H-2-oxa-6,12a-diaza-dibenzo[b,h]fluoren-11-yl)-ethyl]-dimethylsilanyl}-methyl)-3-phenylurea]
IC50 [1, 4]: 23.2 nM | IC50 Ratio [2]: 11.2 | IC50 [2, 7]: 259 nM

CCN(CC)C(=O)NC[Si](C)(C)CCc1c2c(nc3ccccc13)-c1cc3c(c(=O)n1C2)COC(=O)[C@]3(O)CC [Compound 43, (4S)-1,1-diethyl-3-({[2-(4-ethyl-4-hydroxy-3,13-dioxo-3,4,12,13-tetrahydro-1H-2-oxa-6,12a-diaza-dibenzo[b,h]fluoren-11-yl)-ethyl]-dimethylsilanyl} -methyl)-urea]
IC50 [1, 4]: 68.9 nM | IC50 Ratio [2]: 4.28 | IC50 [2, 7]: 295 nM

CC[C@@]1(O)C(=O)OCc2c1cc1n(c2=O)Cc2c-1nc1ccccc1c2CC[Si](C)(C)CNC(=O)N(C)C [Compound 45, (4S)-3-({[2-(4-ethyl-4-hydroxy-3, 13-dioxo-3,4, 12, 13-tetrahydro-1H-2-oxa-6,12a-diaza-dibenzo[b,h]fluoren-11-yl)-ethyl]-dimethylsilanyl}-methyl)-1,1-dimethyl-urea]
IC50 [1, 6]: 36.1 nM | IC50 Ratio [2]: 4.9 | IC50 [2, 5]: 178 nM

CC[C@@]1(O)C(=O)OCc2c1cc1n(c2=O)Cc2c-1nc1ccccc1c2CC[Si](C)(C)O [Compound 46, (4S)-4-Ethyl-4-hydroxy-11-[2-(hydroxydimethylsilanyl)-ethyl]-1, 12-dihydro-4H-2-oxa-6,12a-diaza-dibenzo[b,h]fluorene-3,13-dione]
IC50 [1, 6]: 10 nM | IC50 Ratio [2]: 5.0 | IC50 [2, 5]: 50 nM

CCC1(O)C(=O)OCc2c1cc1n(c2=O)Cc2c-1nc1ccccc1c2CC[Si](C)(C)CCC(=O)O (stereo not drawn) [Compound 47, 3-{[2-(4-Ethyl-4-hydroxy-3,13-dioxo-3 ,4, 12, 13-tetrahydro-1H-2-oxa-6, 12a-diaza-dibenzo[b,h]fluoren-11-yl)-ethyl]-dimethyl-silanyl}-propionic acid]
IC50 [1, 6]: 200 nM | IC50 Ratio [2]: 3.1 | IC50 [2, 5]: 629 nM

CCC1(O)C(=O)OCc2c1cc1n(c2=O)Cc2c-1nc1ccccc1c2CC[Si](C)(C)CCC(=O)N(C)C (stereo not drawn) [Compound 48, 3-{[2-(4-Ethyl-4-hydroxy-3,13-dioxo-3,4,12,13-tetrahydro-1H-2-oxa-6,12a-diaza-dibenzo[b,h]fluoren-11-yl)-ethyl]-dimethyl-silanyl}-N,N-dimethyl-propionamide]
IC50 [1, 6]: 42.3 nM | IC50 Ratio [2]: 3.9 | IC50 [2, 5]: 164 nM

CCC1(O)C(=O)OCc2c1cc1n(c2=O)Cc2c-1nc1ccccc1c2CC[Si](C)(C)CCC(=O)NC(CCC(=O)OCc1ccccc1)C(=O)OCc1ccccc1 (stereo not drawn) [Compound 49, 2-(3-{[2-(4-Ethyl-4-hydroxy-3, 13-dioxo-3,4, 12, 13-tetrahydro-1H-2-oxa-6,12a-diaza-dibenzo[b,h]fluoren-11-yl)-ethyl]-dimethyl-silanyl}-propionylamino)-pentanedioic acid dibenzyl ester]
IC50 [1, 6]: > 2000 nM | IC50 [2, 5]: > 2000 nM

CCC1(O)C(=O)OCc2c1cc1n(c2=O)Cc2c-1nc1ccccc1c2CC[Si](C)(C)CCC(=O)NC(CCC(=O)O)C(=O)O (stereo not drawn) [Compound 50, 2-(3-{[2-(4-Ethyl-4-hydroxy-3, 13-dioxo-3,4, 12, 13-tetrahydro-1H-2-oxa-6, 12a-diaza-dibenzo[b,h]fluoren-11-yl)-ethyl]-dimethyl-silanyl}-propionylamino)-pentanedioic add]
IC50 [1, 8]: 1700 nM | IC50 Ratio [2]: 1699.3 | IC50 [2, 9]: > 2000 nM

CC[C@@]1(O)C(=O)OCc2c1cc1n(c2=O)Cc2c-1nc1ccccc1c2CC[Si](C)(C)CCCOC(=O)c1ccccc1 [Compound 55, Benzoic acid 3-{[2-(4-ethyl-4-hydroxy-3,13-dioxo-3,4, 12, 13-tetrahydro-1H-2-oxa-6,12a-diaza-dibenzo[b,h]fluoren-11-yl)-ethyl]-dimethylsilanyl}-propyl ester]
IC50 [1, 6]: 24 nM | IC50 Ratio [2]: 4.6 | IC50 [2, 5]: 112 nM

CC[C@@]1(O)C(=O)OCc2c1cc1n(c2=O)Cc2c-1nc1ccccc1c2CC[Si](C)(C)CCCOC(=O)c1ccco1 [Compound 57, Furan-2-carboxylic acid 3-{[2-(4-ethyl-4-hydroxy-3,13-dioxo-3,4, 12, 13-tetrahydro-1H-2-oxa-6,12a-diaza-dibenzo[b,h]fluoren-11-yl)-ethyl]-dimethyl-silanyl}-propyl ester]
IC50 [1, 6]: 12.3 nM | IC50 Ratio [2]: 2.4 | IC50 [2, 5]: 29.2 nM

CC[C@@]1(O)C(=O)OCc2c1cc1n(c2=O)Cc2c-1nc1ccccc1c2CC[Si](C)(C)CCCOC(C)=O [Compound 60, Acetic acid 3-{[2-(4-ethyl-4-hydroxy-3,13-dioxo-3,4, 12, 13-tetrahydro-1H-2-oxa-6,12a-diaza-dibenzo[b,h]fluoren-11-yl)-ethyl]-dimethyl-silanyl}-propyl ester]
IC50 [1, 6]: 10.6 nM | IC50 Ratio [2]: 3 | IC50 [2, 5]: 32.1 nM

CCC1(O)C(=O)OCc2c1cc1n(c2=O)Cc2c-1nc1ccccc1c2CC[Si](C)(C)CCCOC(=O)C1CCC1 (stereo not drawn) [Compound 62, Cyclobutanecarboxylic acid 3-{[2-(4-ethyl-4-hydroxy-3, 13-dioxo-3,4, 12, 13-tetrahvdro-1H-2-oxa-6,12a-diaza-dibenzo[b,h]fluoren-11-yl)-ethyl]-dimethyl-silanyl}-propyl ester]
IC50 [1, 8]: 10.4 nM | IC50 Ratio [2]: 3.77 | IC50 [2, 9]: 39.2 nM

CCC1(O)C(=O)OCc2c1cc1n(c2=O)Cc2c-1nc1ccccc1c2CC[Si](C)(C)CCCOC(=O)C1=CCNO1 (stereo not drawn) [Compound 64, 2,3-Dihydro-isoxazole-5-carboxylic acid 3-{[2-(4-ethyl-4-hydroxy-3,13-dioxo-3,4,12,13-tetrahydro-1H-2-oxa-6,12a-diaza-dibenzo[b,h]fluoren-11-yl)-ethyl]-dimethyl-silanyl}-propyl ester]
IC50 [1, 4]: 14 nM | IC50 Ratio [2]: 4.27 | IC50 [2, 7]: 59.8 nM

CCc1c2c(nc3ccccc13)-c1cc3c(c(=O)n1C2)COC(=O)[C@]3(O)CC [SN-22]
Percent of Free Camptothecin Analogs in Human Plasma [3]: 1%
